Measurements from patent US7338959B2, “Diamino-pyrimidines and their use as angiogenesis inhibitors” (SmithKline Beecham Corporation, priority 2002, dated 2008).
Counter-ions that a name gives are not always drawn.

Experiments:
[1] = target: T1, GST-VEGFR2 (Homo sapiens, UniProt P35968); test: VEGF-R2 enzyme assay (VEGF-E), LANCE method; type: biochemical; settings: GST-VEGFR2, 75 uM ATP, biotinylated peptide
T1 construct: baculovirus expressed recombinant constructs of the intracellular domains of human TIE2 tagged by GST; made in house
Text: VEGF-R2 Enzyme Assay (VEGF-E)
The VEGF enzyme assay used the LANCE method (Wallac) and GST-VEGFR2, baculovirus expressed recombinant constructs of the intracellular domains of human TIE2 tagged by GST. The method measured the ability of the purified enzymes to catalyse the transfer of the γ-phosphate from ATP onto tyrosine residues in a biotinylated synthetic peptide, (biotin-aminohexyl-EEEEYFELVAKKKK-NH2). This peptide phosphorylation was detected using the following procedure: GST-VEGFR2 was incubated for 40-60 mins at room temperature with 75 uM ATP, 5 mM MgCl2, 0.1 mM DTT, 0.1 mg/mL BSA and the test compound (diluted from a 10 mM stock in DMSO for desired concentration) in 100 mM HEPES buffer. The reaction was stopped by the addition of EDTA (final concentration 50 mM). Streptavidin linked-APC (allophycocyanin, Molecular Probe) and Europium-labeled anti-phosphorylated tyrosine antibody (Wallac) were then added at the final concentration of 15 nM and 1 nM, respectively. The APC signal was measured using an ARVO multilabel counter (Wallac Berthold, Japan). The percent inhibition of activity was calculated relative to blank control wells. The concentration of test compound that inhibits 50% of activity (IC50) was interpolated using nonlinear regression (Levernberg-Marquardt) and the equation, y=Vmax (1−x/(K+x))+Y2, where “K” was equal to the IC50. The IC50 values were converted to pIC50 values, i.e., −log IC50 in Molar concentration.

[2] = tested on: Human umbilical cord endothelial cells (HUVEC); test: VEGF-driven cellular proliferation assay: BrdU incorporation assay (VEGF-C); type: cell-based; settings: 20 ng/ml VEGF
Protocol: VEGF-Driven Cellular Proliferation Assay: BrdU Incorporation Assay (VEGF-C)
Human umbilical cord endothelial cells (HUVEC, Clonetics, CC2519) were passaged in Type I collagen-coated 100-mm petridishes in EGM-MV medium (Clonetics, CC3125) at 37 C in a humidified 5% CO2, 95% air incubator. (HUVEC passaged more than 6 times in vitro were discarded and not subjected to assaying.) The cells were harvested using trypsin/EDTA, counted using a haemocytometer and plated at 5000 cells/well in a Type I-collagen coated 96-well plate (Becton Dickinson, 354407) in M199 medium (Gibco BRL, 12340-030) containing 5% FBS (Hyclone, A 1115-L) and gentamicin (at 50 ug/ml, Gibco BRL). After incubation overnight at 37° C., the media were replaced with 100 ul of M199 serum-free medium containing compounds at various concentrations with 0.6% DMSO and gentamicin. The compounds were diluted in serum-free M199 medium from 10 mM stock solutions prepared in 100% DMSO. After a 30 min incubation at 37° C., the cells were fed with 100 ul of serum-free M199 medium containing gentamicin, 0.2% culture-grade bovine serum albumin (BSA, Sigma A1993) and 20 ng/ml of VEGF (REtD systems, 293-VE) or 0.6 ng/ml of basic FGF (REtD systems, 233-FB), and cultured at 37° C. for another 24 h. The cells were pulsed with bromodeoxyuridine (BrdU at 10 uM in serum-free M199) at 37° C. for an additional 24 h. The incorporation of BrdU into the proliferating HUVEC were analyzed using BrdU Cell Proliferation ELISA (Roche Molecular Biochemicals, 1647229) according to the manufacturer's protocols. The optical density at 450 nm was measured with a multilabel counter (ARVO SX, Wallac). The percent inhibition of cell growth was calculated relative to blank control wells. The concentration of test compound that inhibits 50% of cell growth (IC50) was interpolated using nonlinear regression (Levernberg-Marquardt) and the equation, y=Vmax (1−x/(K+x))+Y2, where “K” was equal to the IC50. The IC50 values were converted to pIC50 values, i.e., −log IC50 in Molar concentration.

[3] = target: Recombinant GST-Tie2 (Homo sapiens, UniProt Q02763); test: Tie2 fluorescence polarization kinase activity assay (TIE2-FP); type: biochemical; settings: activated Tie2, 200 μM ATP, peptide substrate
Protocol: Tie2 Fluorescence Polarization Kinase Activity Assay: (TIE2-FP)
Activation of Recombinant Tie2 Activation:
Recombinant GST-Tie2 was activated by incubating the enzyme in 20 mM Tris-HCl, pH 7.5, 12 mM MgCl2, 100 mM NaCl, 20 μM sodium vanidate, 1 mM DTT and 300 μM ATP at room temperature for 2 hours. The activation mixture was then passed through a NAP-25 desalting column (Pharmacia Biotech cat. no. 17-0852-02) to remove the free ATP. The activated enzyme was stored as aliquots at −80° C. in 20 mM Tris-HCl, pH 7.5 and 100 mM NaCl.
The final assay conditions were 50 mM HEPES, pH 7.5, 5% DMSO (when screening compounds), 200 μM ATP, 5 mM MgCl2, 1 mM DTT, 50 μM sodium vanidate, 1 nM activated enzyme, and 200 μM peptide. IC50's of compounds were measured under subsaturating ATP (200 μM) and varing concentrations of activated Tie2 and peptide substrate (RFWKYEFWR-OH; MW 1873 Da, TFA salt). Panvera Anti-phosphotyrosine antibody (Cat#P2840) and PTK Green Tracer (Cat#P2842) were used to detect the phosphorylated peptide. Polarization was measured on a TECAN Polarion in 138-second cycles for 30 minutes at room temperature. IC50's were then determined from the % polarization using normal calculation methods.

T1 sequence (P35968 786-1356 limits assumed): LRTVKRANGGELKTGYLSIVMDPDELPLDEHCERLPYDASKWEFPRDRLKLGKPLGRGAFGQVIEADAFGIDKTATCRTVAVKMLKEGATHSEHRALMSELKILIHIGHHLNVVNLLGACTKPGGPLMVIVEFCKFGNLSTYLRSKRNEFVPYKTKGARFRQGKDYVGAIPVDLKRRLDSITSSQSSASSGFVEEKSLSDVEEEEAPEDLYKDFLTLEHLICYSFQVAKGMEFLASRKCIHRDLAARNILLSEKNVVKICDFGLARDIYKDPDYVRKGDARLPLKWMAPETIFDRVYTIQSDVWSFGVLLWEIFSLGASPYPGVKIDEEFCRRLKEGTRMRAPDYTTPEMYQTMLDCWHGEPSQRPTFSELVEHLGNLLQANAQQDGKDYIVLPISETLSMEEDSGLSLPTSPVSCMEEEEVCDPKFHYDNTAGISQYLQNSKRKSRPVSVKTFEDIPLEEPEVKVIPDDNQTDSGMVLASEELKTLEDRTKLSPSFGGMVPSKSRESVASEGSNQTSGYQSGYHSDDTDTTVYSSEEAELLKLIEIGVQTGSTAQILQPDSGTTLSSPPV
Recombinant GST-Tie2, sequence (Q02763 23-1124): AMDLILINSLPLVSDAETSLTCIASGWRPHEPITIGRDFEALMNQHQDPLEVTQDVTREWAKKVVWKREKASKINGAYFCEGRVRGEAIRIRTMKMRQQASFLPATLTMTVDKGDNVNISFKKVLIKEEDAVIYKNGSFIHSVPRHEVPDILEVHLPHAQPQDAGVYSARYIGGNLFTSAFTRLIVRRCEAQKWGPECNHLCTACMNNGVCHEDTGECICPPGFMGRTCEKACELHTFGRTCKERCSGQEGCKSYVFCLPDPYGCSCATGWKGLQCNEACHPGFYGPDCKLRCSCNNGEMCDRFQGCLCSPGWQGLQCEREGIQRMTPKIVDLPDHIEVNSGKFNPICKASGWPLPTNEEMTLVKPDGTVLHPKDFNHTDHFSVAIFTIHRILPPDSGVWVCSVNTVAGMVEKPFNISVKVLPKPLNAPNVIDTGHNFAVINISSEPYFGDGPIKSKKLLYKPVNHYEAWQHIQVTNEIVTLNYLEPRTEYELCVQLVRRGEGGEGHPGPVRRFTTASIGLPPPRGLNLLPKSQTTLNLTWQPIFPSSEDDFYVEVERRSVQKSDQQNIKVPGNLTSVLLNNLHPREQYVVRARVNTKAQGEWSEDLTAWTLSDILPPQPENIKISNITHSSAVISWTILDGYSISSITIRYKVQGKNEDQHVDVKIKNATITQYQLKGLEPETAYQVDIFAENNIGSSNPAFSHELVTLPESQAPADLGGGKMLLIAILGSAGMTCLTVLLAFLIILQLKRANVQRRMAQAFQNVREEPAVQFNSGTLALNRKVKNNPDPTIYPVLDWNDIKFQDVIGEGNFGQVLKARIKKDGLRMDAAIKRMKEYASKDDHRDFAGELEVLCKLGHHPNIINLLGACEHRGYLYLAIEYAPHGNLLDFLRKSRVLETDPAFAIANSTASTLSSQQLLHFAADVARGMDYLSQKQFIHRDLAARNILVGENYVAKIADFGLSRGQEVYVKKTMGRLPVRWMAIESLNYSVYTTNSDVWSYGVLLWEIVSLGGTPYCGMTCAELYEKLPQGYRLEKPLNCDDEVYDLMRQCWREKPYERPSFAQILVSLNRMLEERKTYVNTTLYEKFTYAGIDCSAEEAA

Row | IC50 [1] | IC50 [3] | VEGF-E [1] | TIE2-FP [3] | Compound | IC50 [2]
1 | < 100 nM |  |  |  | CC(C)Nc1nc2cc(N(C)c3ccnc(Nc4ccc(CS(C)(=O)=O)cc4)n3)ccc2n1C [Example 1, N^2-isopropyl-N^5,1-dimethyl-N^5-[2-({4-[(methylsulfonyl)methyl]phenyl}amino)pyrimidin-4-yl]-1H-benzimidazole-2,5-diamine hydrochloride] | < 100 nM
2 | < 100 nM |  |  |  | CC(C)Nc1nc2cc(N(C)c3ccnc(Nc4ccc(CS(N)(=O)=O)cc4)n3)ccc2n1C [Example 2, hydrochloride] | < 100 nM
3 | < 100 nM |  |  |  | CNc1nc2cc(N(C)c3ccnc(Nc4ccc(CS(C)(=O)=O)cc4)n3)ccc2n1C [Example 3, hydrochloride] | < 100 nM
4 | < 100 nM |  |  |  | CN(c1ccc2c(c1)nc(NCc1ccccc1)n2C)c1ccnc(Nc2ccc(CS(C)(=O)=O)cc2)n1 [Example 4, N^2-benzyl-N^5,1-dimethyl-N^5-[2-({4-[(methylsulfonyl)methyl]phenyl}amino)pyrimidin-4-yl]-1H-benzimidazole-2,5-diamine hydrochloride] | < 100 nM
5 | < 100 nM |  |  |  | CN(c1ccc2c(c1)nc(Nc1ccccc1)n2C)c1ccnc(Nc2ccc(CS(C)(=O)=O)cc2)n1 [Example 5, N^5,1-Dimethyl-N^5-[2-({4-[(methylsulfonyl)methyl]phenyl}amino)pyrimidin-4-yl]-N^2-phenyl-1H-benzimidazole-2,5-diamine trifluoroacetic acid] | < 100 nM
6 | < 100 nM |  |  |  | CONS(=O)(=O)c1cc(Nc2nccc(N(C)c3ccc4c(c3)nc(NCc3ccccc3)n4C)n2)ccc1C [Example 6, 5-({4-[[2-(Benzylamino)-1-methyl-1H-benzimidazol-5-yl](methyl)amino]pyrimidin-2-yl}amino)-N-methoxy-2-methylbenzenesulfonamide] | < 100 nM
7 | < 100 nM | 1 to 10 µM |  |  | CN(c1ccc2c(c1)nc(NC(=O)Cc1cccc(F)c1F)n2C)c1ccnc(Nc2ccc(CS(C)(=O)=O)cc2)n1 [Example 226, (2,3-Difluorophenyl)-N-({[2-(4-methanesulfonylmethyl-phenylamino)-pyrimidin-4-yl]-methyl-amino}-methyl-1H-benzoimidazol-2-yl)-acetamide] | 
8 | 100 to 1000 nM | 1 to 10 µM |  |  | CN(c1ccc2c(c1)nc(NC(=O)C1(c3ccc(Cl)c(Cl)c3)CC1)n2C)c1ccnc(Nc2cccc(CS(C)(=O)=O)c2)n1 [Example 229, 1-(3,4-Dichloro-phenyl)-cyclopropanecarboxylic acid ({[2-(3-methanesulfonylmethyl-phenylamino)-pyrimidin-4-yl]-methyl-amino}-methyl-1H-benzoimidazol-2-yl)-amide] | 
9 | < 100 nM | 1 to 10 µM |  |  | CN(c1ccc2c(c1)nc(NC(=O)Cc1ccccc1Cl)n2C)c1ccnc(Nc2ccc(CS(C)(=O)=O)cc2)n1 [Example 230, 2-(2-Chlorophenyl)-N-({[2-(4-methanesulfonylmethyl-phenylamino)-pyrimidin-4-yl]-methyl-amino}-methyl-1H-benzoimidazol-2-yl)-acetamide] | 
10 |  |  | ++ (++ = pIC50 of 6.0-7.0) | + (+ = pIC50 of 5.0-6.0) | (3,5-Bis-trifluoromethyl-phenyl)-N-({[2-(3-methanesulfonylmethyl-phenylamino]-pyrimidin-4-yl]-methyl-amino}-methyl-1H-benzoimidazol-2-yl)-acetamide [Example 161] | 
11 |  |  | +++ (+++ = pIC50 of >7.0) | + (+ = pIC50 of 5.0-6.0) | N-({[2-(4-Methanesulfonylmethyl-phenylamino)-pyrimidin-4-yl]-methyl-amino}-methyl-1H-benzoimidazol-2-yl)-dimethyl-butyramide [Example 177] | 
12 |  |  | +++ (+++ = pIC50 of >7.0) | + (+ = pIC50 of 5.0-6.0) | Thiophene-2-carboxylic acid ({[2-(3-methanesulfonylmethyl-phenylamino)-pyrimidin-4-yl]-methyl-amino}-methyl-1H-benzoimidazol-2-yl)-amide [Example 167] | 
